From patent US6610694B1, “Condensed pyridazine compounds, their production and use” (Takeda Chemical Industries, Ltd., priority 1998, dated 2003)
Counter-ions that a name gives are not always drawn.

Tests used:
[1] = system: histamine-induced skin reactions in guinea pigs; assay: Effect on histamine-induced skin reactions in guinea pigs (skin vascular permeability); assay type: in vivo, guinea pig; settings: oral 3 mg/kg
Experimental: Effect on Histamine-induced Skin Reactions in Guinea Pigs
Male Hartley guinea pigs weighing about 500 g were used. After the dorsal hair was shaved under ether anesthesia, 1 ml of a 2.5% pontamine sky blue solution was injected intravenously administered, and then 0.1 ml of histamine at 3 μg/ml was injected intradermally into 2 sites (left and right) in the back. Thirty minutes after the injection of histamine, the animals were killed by bleeding and the skin was removed. Two perpendicular diameters (mm) of each blue spot on the inside of the skin were measured and multiplied; the mean for the two products was taken as the microvascular permeability index. Test compounds were suspended in a 5% gum arabic solution and orally administered in a volume of 0.2 ml/100 g body weight 1 hour before histamine administration. Animals in the control group received the same volume of a 5% gum arabic solution. The suppression rate of the sample for the title reaction was calculated using Equation 1, and the results are given in Table 1.
Inhibition (%) of histamine-induced skin reactions=100×(1−vascular permeability index in the presence of drug/vascular permeability index in control group) Equation 1
In the same manner as Experimental Example 1a, the effects of various example compounds on histamine-induced skin reactions in guinea pigs were examined.

guinea pig eosinophils = assay: Suppression of LTB4-induced chemotactic reaction in guinea pig eosinophils; assay type: cell-based
Experimental: 1) Preparation of Guinea Pig Eosinophils
To male Hartley guinea pigs, 2 ml of equine serum (Bio-Whittaker, Inc.) was intraperitoneally administered once weekly for 8 consecutive weeks. At 48 hours after final administration, 75 ml of physiological saline was intraperitoneally injected, after which the saline was recovered and centrifuged at 400×g for 5 minutes. The resulting sediment was suspended in 5 ml of Percoll solution (density (d)=1.07) and layered on top of the multiple layers of different densities of Percoll solution (density(d)=1.112, 5 ml; d=1.095, 10 ml; d=1.090, 10 ml; d=1.085, 5 ml), followed by centrifugation at 1,000×g for 25 minutes (20° C.). The cell layer formed at the interface between densities 1.112 and 1.095 was collected. Erythrocytes present in the collected cell sediment were removed by hypotonic treatment (suspended in water for […]).
The cell sediment was washed 3 times with Hanks' solution containing 10 mM Hepes (Dojin Kagaku) (Hanks-Hepes) and suspended in a Hanks-Hepes solution containing 2% human serum albumin (Wako Pure Chemical Industry or Sigma) (Hanks-Hepes-HSA) to a final concentration of 5.56×10^6 cells/ml. Eosinophil purity was 90%, viability being over 98%.
2) Determination of Chemotactic Reaction Suppression
To a 24-well petri dish, which serves as a lower chamber, 600 μl of Hanks-Hepes-HSA solution containing LTB4 (final concentration 10^−8 M, Cascade Biochemical Ltd.), was transferred, followed by incubation at 37° C. for 30 minutes in a carbon dioxide incubator. Separately, 200 μl of eosinophil suspension (5×10^6 cells/ml), previously incubated at 37 C for 15 minutes, was added to Chemotaxicell (polycarbonate membrane, pore size 3 μm, thickness 10 μm), which serves as an upper chamber, after the upper chamber was attached to the 24-well petri dish. After 2 hours of reaction in the CO2 incubator, the Chemotaxicell was removed; 60 μl of a 2% (w/v) solution of EDTA in physiological saline was added to the liquid in the lower chamber. After the mixture was on cooled ice, the cells migrating into the lower chamber were counted using a blood cell counter [Coulter Counter (trade name)]. The test drug, dissolved in N,N-dimethyl formamide (DMF), was added to both the upper and lower chambers to a final concentration of 10^-5 M.
Chemotactic reaction suppression rate=[1−(number of migrating cells in the presence of drug/number of migrating cells in the absence of drug).]×100 Equation 2
Suppression rates of LTB4-induced chemotactic reaction by test substances (1×10^−5 M) were calculated using the above equation.
In the same manner as Experimental Example 2a, the percent suppression of LTB4-induced chemotactic reactions by various example compounds was calculated.

[2] = same manner as Experimental Example 1a, Table 3
[3] = LTB4-induced chemotaxis, same manner as Experimental Example 2a (1×10^−5 M), Table 4
[4] = 1 hour before intradermal histamine, Table 1
[5] = LTB4 10^−8 M-induced chemotaxis, test substance 1×10^−5 M, Table 2

In the case of `CCOC(=O)Cn1nc2ccc(NCCCN3CCC(OC(c4ccccc4)c4ccccc4)CC3)nn2c1=O` [Example 7b, ethyl 2-[6-[3-[4-(Diphenylmethoxy)piperidino]propylamino]-3-oxo[1,2,4]triazolo[4,3-b]pyridazin-2(3H)-yl]acetate], the “Suppression (%) of histamine-induced skin vascular permeability elevation, oral administration at 3 mg/kg” value (shortened to “Suppression (%)”) [1, 2] is reported as 89%, the “Suppression rate (%)” value (guinea pig eosinophils; [3]) is reported as 26% and the melting point is reported as 137 to 139 °C.

With `c1ccc(C(OC2CCN(CCCCCCOc3ccc4nncn4n3)CC2)c2ccccc2)cc1` [Example 7a, 6-[6-[4-(Diphenylmethoxy)piperidino]hexyloxy][1,2,4]triazolo[4,3-b]pyridazine Fumarate] the “Suppression (%)” value [1, 4] was 89% and the “Suppression rate (%)” value (guinea pig eosinophils; [5]) was 36%.

With `CC(C)(C)c1nnc2ccc(OCCCN3CCC(OC(c4ccccc4)c4ccccc4)CC3)nn12` [Example 13a, 3-tert-Butyl-6-[3-[4-(diphenylmethoxy)piperidino]propoxy][1,2,4]triazolo[4.3-b]pyridazine] the “Suppression (%)” value [1, 4] was 79% and the “Suppression rate (%)” value (guinea pig eosinophils; [5]) was 41%.

With `O=C(O)c1nnc2ccc(NCCCN3CCC(OC(c4ccccc4)c4ccccc4)CC3)nn12` [Example 22a, 6-[3-[4-(Diphenylmethoxy)piperidino]propylamino][1,2,4]triazolo[4,3-b]pyridazine-3-carboxylic Acid] the “Suppression (%)” value [1, 4] was 86%, the “Suppression rate (%)” value (guinea pig eosinophils; [5]) was 50% and the melting point was 102 to 104 °C.

For `c1ccc(C(OC2CCN(CCCCCCNc3ccc4nncn4n3)CC2)c2ccccc2)cc1` [Example 10a, 6-[6-[4-(Diphenylmethoxy)piperidino]hexylamino][1,2,4]triazolo[4,3-b]pyridazine], the “Suppression (%)” value [1, 4] was 91%, the “Suppression rate (%)” value (guinea pig eosinophils; [5]) was 60% and the melting point was 124 to 127 °C.

With `CCOC(=O)C(C)(C)n1nc2ccc(NCCCN3CCC(OC(c4ccccc4)c4ccccc4)CC3)nn2c1=O.Cl` [Example 8b, Ethyl 2-[6-[3-[4-(Diphenylmethoxy)piperidino]propylamino]-3-oxo[1,2,4]triazolo[4,3-b]pyridazin-2(3H)-yl]-2-methylpropionate Hydrochloride] the “Suppression (%)” value [1, 2] was 74%, the “Suppression rate (%)” value (guinea pig eosinophils; [3]) was 57% and the melting point was 162 °C.
